According to PubChem BioAssay (NCI):
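Values below derive from 48-hour exposures of cells grown in 96-well plates, with endpoints linearly interpolated between the two concentrations bracketing the appropriate inhibition level. TGI: total growth inhibition.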

What was measured:
Assay in all cases: NCI anticancer screen, dose series, 48 h
HCC-2998 colon = system: HCC-2998 colon
PC-3 prostate = system: PC-3 prostate
MDA-MB-231 breast = system: MDA-MB-231 breast
IGROV1 ovarian = system: IGROV1 ovarian
HOP-92 NSCLC = system: HOP-92 NSCLC
NCI/ADR-RES ovarian = system: NCI/ADR-RES ovarian
U251 CNS = system: U251 CNS
KM12 colon = system: KM12 colon
MCF7 breast = system: MCF7 breast

Structure (SMILES) | TGI (HCC-2998 colon) [µM] | TGI (PC-3 prostate) [µM] | TGI (MDA-MB-231 breast) [µM] | TGI (IGROV1 ovarian) [µM] | TGI (HOP-92 NSCLC) [µM] | TGI (NCI/ADR-RES ovarian) [µM] | TGI (U251 CNS) [µM] | TGI (KM12 colon) [µM] | TGI (MCF7 breast) [µM]
Cc1ccc(S(=O)(=O)OC2C(C3COC(C)(C)O3)OC3OC(C)(C)OC32)cc1 (centres undefined) | > 100 | > 100 | > 100 | > 100 | > 100 | > 100 | > 100 | > 100 | –
O=[N+]([O-])c1cc(Cl)cc2cc(Cl)cnc12 | > 100 | > 100 | > 100 | 66.8 | > 100 | > 100 | > 100 | – | –
COC(=O)CCn1cnc2c(SC)ncnc21 | – | > 100 | > 100 | > 100 | > 100 | > 100 | – | > 100 | > 100
OC1CN2CCS[C@H]2C(O)C1O (some centres undefined) | > 100 | > 100 | > 100 | > 100 | > 100 | > 100 | > 100 | > 100 | –
O=C(/C=C/c1ccco1)CC(=O)/C=C/c1ccco1 | 17.3 | – | – | > 31.6 | 71.7 | 21.7 | 19.7 | > 55.2 | 19.2
N/N=C1\CCCc2c1no[n+]2[O-] | > 100 | > 100 | > 100 | > 100 | – | > 100 | > 100 | > 100 | > 100
COc1cccc(/C=C2\CCCCCC2=O)c1 | > 100 | > 100 | > 100 | > 100 | > 100 | – | > 100 | > 100 | –
O=[n+]1c2ccccc2n([O-])c2cc(Br)ccc21 | 39.9 | – | > 100 | 18.8 | – | 68.9 | 78.8 | 30.9 | 53
CCOP(=O)(C=C=C(C)C)OCC | > 100 | > 100 | – | > 100 | > 100 | > 100 | > 100 | > 100 | > 100
CC1CCC2C(C(=O)O[C@H]3C4CCO[C@@H](OC5OC(CO)C(O)C(O)C5O)C4[C@@]4(CO)O[C@@H]34)=CO[C@@H](OC3OC(CO)C(O)C(O)C3O)C12 (some centres undefined) | > 10 | > 10 | > 10 | > 10 | > 10 | – | > 10 | > 10 | > 10
COc1ccc(O)c(C=NCCCN=Cc2cc(OC)ccc2O)c1 | – | > 100 | > 100 | > 100 | 65 | – | 56.9 | 64.6 | 56.9
O=C(c1cccnc1)N1N=C(c2ccc(Cl)cc2)CC1(O)c1cc(F)c(Cl)cc1Cl (centres undefined) | – | 43.4 | 38.9 | 82.1 | 59.8 | > 100 | 34.3 | > 100 | –
NS(=O)(=O)c1ccc(CNc2nc(-c3cccs3)nc3ccc(I)cc23)cc1 | 27.7 | 53.3 | – | 30.6 | 54.4 | 77.6 | 37.7 | 23.7 | 16.1
O=C(OCC1OC(c2nn[nH]n2)C(OC(=O)c2ccccc2)C1OC(=O)c1ccccc1)c1ccccc1 (centres undefined) | > 100 | > 100 | – | – | > 100 | > 100 | > 100 | > 100 | > 100
O=C(OC(=C(c1ccccc1)c1ccccc1)N1CCCC1=S)C(c1ccccc1)c1ccccc1 | > 10 | > 10 | > 10 | > 10 | – | > 10 | > 10 | > 10 | > 10
COc1ccc2oc(C(=O)N3CC(CCl)c4ccc([N+](=O)[O-])cc43)cc2c1 (centres undefined) | > 100 | > 100 | 54.5 | 29.5 | > 100 | > 100 | > 100 | > 100 | –
CC(C)(C)C(=O)C(C(c1ccccc1)N1CCOCC1)N1CCOCC1 (centres undefined) | > 100 | > 100 | > 100 | > 100 | > 100 | > 100 | > 100 | > 100 | –
ClC1=C(Cc2ccccc2)Cc2ccc3c(c21)CCC3 | 40.1 | > 100 | 57.3 | > 100 | > 100 | – | 39.3 | 39.2 | 37.7
CN(/N=C/C=N/N(C)C1=NCCCCN1)C1=NCCCCN1 | > 100 | > 100 | > 100 | > 100 | – | > 100 | > 100 | – | > 100
CCOC(=O)C1=c2[nH]c3cccc4cccc(c43)n2C=C(C(C)=O)C1CC(C)=O (centres undefined) | > 100 | > 100 | – | > 100 | > 100 | > 100 | > 100 | > 100 | > 100
COc1ccc(N2C(=O)C3c4[nH]c5cccc(C)c5c4C4CCC(C(C)(C)C)CC4C3C2=O)cc1 (centres undefined) | > 10 | > 10 | > 10 | > 10 | – | > 10 | > 10 | > 10 | > 10
